Measured values from patent US20200368315A1, “ANTIMICROBIAL PEPTIDES AND ADMIXTURES THEREOF SHOWING ANTIMICROBIAL ACTIVITY AGAINST GRAM-NEGATIVE PATHOGENS” (priority 2017, published 2020).
In brackets after ≈: the same amount, converted by molar mass. Several values for one entry are separate records, joined by “and”; a condition that tells them apart may be missing. Identical values can stand only once. Like-named read-outs stand apart in the source and are kept apart here.

Assays:
A. baumannii LMG01041 [1] = format: cell-based, Acinetobacter baumannii
Source text: (§1) The test of synergistic effect was processed by conducting standard chequerboard broth microdilution assays. Nisin (Drug X) was loaded two fold serially diluted from row 1 to 10 in X-axis while GNPs (Drug Y) were loaded in eight two fold serially diluted concentrations from line A to H in Y-axis (FIG. 1). The original concentrations of peptides were MICs of each. Row 11 are used as growth control with no peptide was included, while row 12 with MHB medium-only wells was included as a sterility control as referred before. 50 uL fresh bacterial suspension was added to well 1-11 and final volume of each well on the plate is 100 uL.
(§2) To determine whether the combination therapy is additive, synergistic or antagonistic, fractional inhibitory concentration (FIC) indices were calculated. FICI=FICa+FICb=MICac/MICa+MICbc/MICb. The MICa/MICb is the MIC of compound A/B alone. MICac is the MIC of compound A in combination with compound B and MICbc is the MIC of compound B when it was combination with compound A. […]. FICa is FIC of compound A while FICb is FIC of compound B. The FICI is interpreted as follows: synergistic, FICI≤0.5; additive, 0.5<FICI<1; indifferent, 1<FICI<2; antagonistic, FICI>2.

K. pneumoniae LMG20218 [2] = test: microbe, parasite or virus in culture; format: cell-based, Klebsiella pneumoniae; conditions: K. pneumoniae LMG20218
Experimental: (§3) Escherichia coli, Klebsiella pneumoniae, Pseudomonas aeruginosa, Acinetobacter baumannii, Enterobacter aerogenes were grown in Luria-Bertani (LB) broth shaken (200 rpm) or on LB agar at 37° C. […] MICs tests were performed in duplicate by a liquid growth inhibition microdilution assays in sterilized polypropylene microtiter plates according to Wiegand and […] [27]. […] The suspension was diluted in a ratio of 1:100 using Mueller Hinton Broth (MHB) and the final inoculum is 5*10^5 CFU/mL. […] The antimicrobials were diluted serially by 1/2 one by one and 50 uL diluted bacterial suspension were added to each well to make the final volume to be 100 uL. Growth control was accomplished by remove 10 uL from well 11 and dilute 1000 times to plate 1/10 suspension on the solid medium. […] The number of colonies on the control agar plate should be around 50 to ensure the concentration of the inoculum and the effectiveness of the experiment. The lowest concentration of the antimicrobials that inhibits visible growth of the indicator is identified as MIC.

P. aeruginosa LMG 6395 [3] = test: microbe, parasite or virus in culture; format: cell-based, Pseudomonas aeruginosa; conditions: P. aeruginosa LMG 6395
Experimental: as §3

A. baumannii LMG01041 [4] = test: microbe, parasite or virus in culture; format: cell-based, Acinetobacter baumannii; conditions: A. baumannii LMG01041
Experimental: as §3

K. pneumoniae LMG20218 [5] = format: cell-based, Klebsiella pneumoniae
Source text: as §1, §2

Gram-negative pathogens = format: cell-based; conditions: L-form GNPs alone; five Gram-negative pathogens
Experimental: as §3

E. aerogenes LMG 02094 [6] = format: cell-based, Enterobacter aerogenes
Source text: as §1, §2

A. baumannii LMG01041 [7] = tested on: A. baumannii LMG01041
Experimental: (§4) The test of synergistic effect was processed by conducting standard chequerboard broth microdilution assays. […] Row 11 are used as growth control with no peptide was included, while row 12 with MHB medium-only wells was included as a sterility control as referred before. 50 uL fresh bacterial suspension was added to well 1-11 and final volume of each well on the plate is 100 uL.
(§5) The test of synergistic effect was processed as method 1.4.
as §2

K. pneumoniae LMG20218 [8] = tested on: K. pneumoniae LMG20218
Experimental: as §4, §5, §2

P. aeruginosa LMG 6395 [9] = tested on: P. aeruginosa LMG 6395
Experimental: as §4, §5, §2

E. aerogenes LMG 02094 [10] = tested on: E. aerogenes LMG 02094
Experimental: as §4, §5, §2

E. coli LMG15862 [11] = tested on: E. coli LMG15862
Experimental: as §4, §5, §2

E. coli LMG15862 [12] = test: microbe, parasite or virus in culture; format: cell-based, Escherichia coli; conditions: E. coli LMG15862
Experimental: as §3

E. coli LMG15862 [13] = format: cell-based, Escherichia coli
Source text: as §1, §2

L. lactis MG1363 = conditions: L. lactis MG1363
P. aeruginosa LMG 6395 [14] = format: cell-based, Pseudomonas aeruginosa
Source text: as §1, §2

E. aerogenes LMG 02094 [15] = test: microbe, parasite or virus in culture; format: cell-based, Enterobacter aerogenes; conditions: E. aerogenes LMG 02094
Experimental: as §3

[16] = MIC of GNP when used with the MICac concentration of nisin
[17] = MIC of nisin in combination with the GNP at the MICbc concentration
[18] = MIC of GNP in combination with vancomycin at the MICac concentration
[19] = MIC of vancomycin in combination with the GNP at the MICbc concentration

For CC[C@H](C)[C@H](NC(=O)[C@H](CCCNC(=N)N)NC(=O)[C@H](CCCNC(=N)N)NC(=O)[C@H](Cc1ccccc1)NC(=O)[C@H](CC(C)C)NC(=O)[C@H](CCCNC(=N)N)NC(=O)[C@@H](N)CCCNC(=N)N)C(=O)N[C@@H](CC(C)C)C(=O)N[C@@H](CCCNC(=N)N)C(=O)N[C@@H](Cc1c[nH]c2ccccc12)C(=O)N[C@@H](CC(C)C)C(N)=O [GNP-6], the MICb (A. baumannii LMG01041 [1]; MIC of GNP alone) was 2 µM, the MICbc (A. baumannii LMG01041 [1]; [16]) was 0.5 µM and the MICac (A. baumannii LMG01041 [1]; [17]) was 0.75 µM. The FICI (A. baumannii LMG01041 [1]; nisin + GNP) was 0.375, the “MIC value of antimicrobial compounds alone” value (K. pneumoniae LMG20218 [2]) was 4 µM and the “MICb (MIC of GNP alone)” value (K. pneumoniae LMG20218 [2]; L-form GNP, Table 7) was 4 µM. For the same compound, the MIC value (K. pneumoniae LMG20218 [2]; alone) was 4 µM (≈ 6.34 µg/mL), the “MICb (MIC of GNP alone)” value (P. aeruginosa LMG 6395 [3]; L-form GNP, Table 7) was 3 µM and the “MIC value of antimicrobial compounds alone” value (P. aeruginosa LMG 6395 [3]) was 3 µM. The MIC value (P. aeruginosa LMG 6395 [3]; alone) was 3 µM (≈ 4.75 µg/mL), the “MIC value of antimicrobial compounds alone” value (A. baumannii LMG01041 [4]) was 2 µM and the “MICb (MIC of GNP alone)” value (A. baumannii LMG01041 [4]; L-form GNP, Table 7) was 2 µM. The MIC value (A. baumannii LMG01041 [4]; alone) was 2 µM (≈ 3.17 µg/mL), the MICb (K. pneumoniae LMG20218 [5]; MIC of GNP alone) was 4 µM and the MICbc (K. pneumoniae LMG20218 [5]; [16]) was 0.5 µM. The MICac (K. pneumoniae LMG20218 [5]; [17]) was 3 µM, the FICI (K. pneumoniae LMG20218 [5]; nisin + GNP) was 0.188 and the “Activity ranking amongst all the GNPs” value (Gram-negative pathogens) was “most potent”. It also gave an MICb (E. aerogenes LMG 02094 [6]; MIC of GNP alone) of 8 µM, an MICbc (E. aerogenes LMG 02094 [6]; [16]) of 1 µM and an MICac (E. aerogenes LMG 02094 [6]; [17]) of 1 µM. For the same compound, the FICI (E. aerogenes LMG 02094 [6]; nisin + GNP) was 0.156, the MICb (A. baumannii LMG01041 [7]; MIC of GNP alone) was 2 µM and the MICbc (A. baumannii LMG01041 [7]; [18]) was 0.5 µM and 1 µM. For the same compound, the MICac (A. baumannii LMG01041 [7]; [19]) was 8 µM and 4 µM, the FICI (A. baumannii LMG01041 [7]; vancomycin + GNP) was 0.5 and 0.625 and the MICb (K. pneumoniae LMG20218 [8]; MIC of GNP alone) was 4 µM. The MICbc (K. pneumoniae LMG20218 [8]; [18]) was 0.25 µM, the MICac (K. pneumoniae LMG20218 [8]; [19]) was 32 µM and 16 µM and the FICI (K. pneumoniae LMG20218 [8]; vancomycin + GNP) was 0.313 and 0.25 and 0.5. For the same compound, the MICb (P. aeruginosa LMG 6395 [9]; MIC of GNP alone) was 3 µM, the MICbc (P. aeruginosa LMG 6395 [9]; [18]) was 1.5 µM and the MICac (P. aeruginosa LMG 6395 [9]; [19]) was 32 µM. It also gave an FICI (P. aeruginosa LMG 6395 [9]; vancomycin + GNP) of 0.75, an MICb (E. aerogenes LMG 02094 [10]; MIC of GNP alone) of 8 µM and an MICbc (E. aerogenes LMG 02094 [10]; [18]) of 2 µM. For the same compound, the MICac (E. aerogenes LMG 02094 [10]; [19]) was 8 µM, the FICI (E. aerogenes LMG 02094 [10]; vancomycin + GNP) was 0.291 and the MICb (E. coli LMG15862 [11]; MIC of GNP alone) was 2 µM. It also gave an MICbc (E. coli LMG15862 [11]; [18]) of 0.5 µM, an MICac (E. coli LMG15862 [11]; [19]) of 16 µM and an FICI (E. coli LMG15862 [11]; vancomycin + GNP) of 0.5. The “MIC value of antimicrobial compounds alone” value (E. coli LMG15862 [12]) was 2 µM, the “MICb (GNP concentration when used alone)” value (E. coli LMG15862 [12]; L-form GNP, Table 6) was 2 µM and the MIC value (E. coli LMG15862 [12]; alone) was 2 µM (≈ 3.17 µg/mL). The MICb (E. coli LMG15862 [13]; MIC of GNP alone) was 2 µM, the MICbc (E. coli LMG15862 [13]; [16]) was 0.5 µM and the MICac (E. coli LMG15862 [13]; [17]) was 1.5 µM. The FICI (E. coli LMG15862 [13]; nisin + GNP) was 0.375, the “MIC value of antimicrobial compounds alone” value (L. lactis MG1363) was 1 µM and the MICb (P. aeruginosa LMG 6395 [14]; MIC of GNP alone) was 3 µM. The MICbc (P. aeruginosa LMG 6395 [14]; [16]) was 0.75 µM, the MICac (P. aeruginosa LMG 6395 [14]; [17]) was 4.5 µM and the FICI (P. aeruginosa LMG 6395 [14]; nisin + GNP) was 0.375. For the same compound, the “MIC value of antimicrobial compounds alone” value (E. aerogenes LMG 02094 [15]) was 8 µM, the “MICb (MIC of GNP alone)” value (E. aerogenes LMG 02094 [15]; L-form GNP, Table 7) was 8 µM and the MIC value (E. aerogenes LMG 02094 [15]; alone) was 8 µM (≈ 12.7 µg/mL).
